Measured values taken from patent US20080160009A1, “Inhibiting Cav3 Isoforms and the 25B Splice Varients for the Diagnosis and Treatment of Cancer” (priority 2004, published 2008).

Test system: human PC3 prostate cancer cells
Assay: Lifespan of SCID mice inoculated with human PC3 prostate cancer cells
Assay type: in vivo

## COc1ccc(CCN2CCC[C@H]2COC(c2ccccc2)c2ccc(Cl)cc2)cc1 (stereo partly shown) [TH-1177]
  lifespan: significantly extended the lifespan
